From ChEMBL document CHEMBL1153753, “Structure-activity relationships and mechanism of action of antitumor bis 8-hydroxyquinoline substituted benzylamines” (Eur J Med Chem, 2010)
The source made the active and inactive calls. No cut-off for these calls is given here.

How the values were obtained:
[1] = Disregulation of cell cycle related gene expression in human U87 cells assessed as change in CCPG1 mRNA level at 0.5 uM after 16 hrs by microarray analysis relative to untreated control; format: functional, cell-based; conditions: U-87MG ATCC
[2] = Disregulation of apoptosis related gene expression in human U87 cells assessed as change in GDF15 mRNA level at 0.5 uM after 16 hrs by microarray analysis relative to untreated control; format: functional, cell-based; conditions: U-87MG ATCC
[3] = Disregulation of endoplasmic reticulum stress responsive gene expression in human U87 cells assessed as change in ARN1 mRNA level at 0.5 uM after 16 hrs by microarray analysis relative to untreated control; format: functional, cell-based; conditions: U-87MG ATCC
[4] = Disregulation of cell development related gene expression in human U87 cells assessed as change in ISL2 mRNA level at 0.5 uM after 16 hrs by microarray analysis relative to untreated control; format: functional, cell-based; conditions: U-87MG ATCC
[5] = Disregulation of cell cycle related gene expression in human U87 cells assessed as change in CDK2 mRNA level at 0.5 uM after 16 hrs by microarray analysis relative to untreated control; format: functional, cell-based; conditions: U-87MG ATCC
[6] = Cytotoxicity against human KB3 cells after 72 hrs by MTS assay; format: functional; conditions: KB3, 72 h
[7] = Disregulation of apoptosis related gene expression in human U87 cells assessed as change in E2F1 mRNA level at 0.5 uM after 16 hrs by microarray analysis relative to untreated control; format: functional, cell-based; conditions: U-87MG ATCC
[8] = Disregulation of apoptosis related gene expression in human U87 cells assessed as change in FAS mRNA level at 0.5 uM after 16 hrs by microarray analysis relative to untreated control; format: functional, cell-based; conditions: U-87MG ATCC
[9] = Disregulation of cell cycle related gene expression in human U87 cells assessed as change in cyclin F mRNA level at 0.5 uM after 16 hrs by microarray analysis relative to untreated control; format: functional, cell-based; conditions: U-87MG ATCC
[10] = Disregulation of inflammation related gene expression in human U87 cells assessed as change in EREG mRNA level at 0.5 uM after 3 hrs by microarray analysis relative to untreated control; format: functional, cell-based; conditions: U-87MG ATCC
[11] = Disregulation of inflammation related gene expression in human U87 cells assessed as change in IL8 mRNA level at 0.5 uM after 16 hrs by microarray analysis relative to untreated control; format: functional, cell-based; conditions: U-87MG ATCC
[12] = Disregulation of endoplasmic reticulum stress responsive gene expression in human U87 cells assessed as change in Chop mRNA level at 0.5 uM after 16 hrs by microarray analysis relative to untreated control; format: functional, cell-based; conditions: U-87MG ATCC
[13] = Disregulation of endoplasmic reticulum stress responsive gene expression in human U87 cells assessed as change in PUMA mRNA level at 0.5 uM after 16 hrs by microarray analysis relative to untreated control; format: functional, cell-based; conditions: U-87MG ATCC
[14] = Disregulation of cell development related gene expression in human U87 cells assessed as change in HOXA6 mRNA level at 0.5 uM after 16 hrs by microarray analysis relative to untreated control; format: functional, cell-based; conditions: U-87MG ATCC
[15] = Disregulation of apoptosis related gene expression in human U87 cells assessed as change in NOXA mRNA level at 0.5 uM after 3 hrs by microarray analysis relative to untreated control; format: functional, cell-based; conditions: U-87MG ATCC
[16] = Cytotoxicity against human U373 cells by MTT assay; format: functional, cell-based, U-373MG ATCC; conditions: U373 MG
[17] = Disregulation of cell development related gene expression in human U87 cells assessed as change in HQXB9 mRNA level at 0.5 uM after 16 hrs by microarray analysis relative to untreated control; format: functional, cell-based; conditions: U-87MG ATCC
[18] = Disregulation of cell cycle related gene expression in human U87 cells assessed as change in cyclin E2 mRNA level at 0.5 uM after 16 hrs by microarray analysis relative to untreated control; format: functional, cell-based; conditions: U-87MG ATCC
[19] = Disregulation of cell survival related gene expression in human U87 cells assessed as change in FGF18 mRNA level at 0.5 uM after 16 hrs by microarray analysis relative to untreated control; format: functional, cell-based; conditions: U-87MG ATCC
[20] = Disregulation of cell cycle related gene expression in human U87 cells assessed as change in CDC6 mRNA level at 0.5 uM after 16 hrs by microarray analysis relative to untreated control; format: functional, cell-based; conditions: U-87MG ATCC
[21] = Disregulation of cell survival related gene expression in human U87 cells assessed as change in FGF2 mRNA level at 0.5 uM after 16 hrs by microarray analysis relative to untreated control; format: functional, cell-based; conditions: U-87MG ATCC
[22] = Disregulation of apoptosis related gene expression in human U87 cells assessed as change in IGFBP3 mRNA level at 0.5 uM after 16 hrs by microarray analysis relative to untreated control; format: functional, cell-based; conditions: U-87MG ATCC
[23] = Disregulation of cell survival related gene expression in human U87 cells assessed as change in BCL2L10 mRNA level at 0.5 uM after 16 hrs by microarray analysis relative to untreated control; format: functional, cell-based; conditions: U-87MG ATCC
[24] = Disregulation of apoptosis related gene expression in human U87 cells assessed as change in BIM mRNA level at 0.5 uM after 16 hrs by microarray analysis relative to untreated control; format: functional, cell-based; conditions: U-87MG ATCC
U-87MG ATCC [25] = test: Antiproliferative activity against human U87 cells expressing GFP assessed as reduction in cell density at 20 uM by flash-cytometry; format: functional, cell-based
[26] = Disregulation of inflammation related gene expression in human U87 cells assessed as change in IL1A mRNA level at 0.5 uM after 16 hrs by microarray analysis relative to untreated control; format: functional, cell-based; conditions: U-87MG ATCC
[27] = Disregulation of DNA-damage and oxidative stress responsive gene expression in human U87 cells assessed as change in SESN2 mRNA level at 0.5 uM after 3 hrs by microarray analysis relative to untreated control; format: functional, U-87MG ATCC
[28] = Disregulation of cell cycle related gene expression in human U87 cells assessed as change in CDC25A mRNA level at 0.5 uM after 16 hrs by microarray analysis relative to untreated control; format: functional, cell-based; conditions: U-87MG ATCC
[29] = Disregulation of inflammation related gene expression in human U87 cells assessed as change in IFRD1 mRNA level at 0.5 uM after 16 hrs by microarray analysis relative to untreated control; format: functional, cell-based; conditions: U-87MG ATCC
U-87MG ATCC [30] = test: Antiproliferative activity against human U87 cells expressing GFP assessed as apparent cell death at 20 uM after 3 days by flash-cytometry; format: functional, cell-based
[31] = Disregulation of inflammation related gene expression in human U87 cells assessed as change in CCL17 mRNA level at 0.5 uM after 3 hrs by microarray analysis relative to untreated control; format: functional, cell-based; conditions: U-87MG ATCC
[32] = Disregulation of endoplasmic reticulum stress responsive gene expression in human U87 cells assessed as change in RGS16 mRNA level at 0.5 uM after 3 hrs by microarray analysis relative to untreated control; format: functional, cell-based; conditions: U-87MG ATCC
[33] = Disregulation of DNA-damage and oxidative stress responsive gene expression in human U87 cells assessed as change in DDIT4 mRNA level at 0.5 uM after 16 hrs by microarray analysis relative to untreated control; format: functional, U-87MG ATCC
[34] = Disregulation of cell cycle related gene expression in human U87 cells assessed as change in SKP2 mRNA level at 0.5 uM after 16 hrs by microarray analysis relative to untreated control; format: functional, cell-based; conditions: U-87MG ATCC
[35] = Disregulation of inflammation related gene expression in human U87 cells assessed as change in CXCL3 mRNA level at 0.5 uM after 16 hrs by microarray analysis relative to untreated control; format: functional, cell-based; conditions: U-87MG ATCC

Cc1ccc(CN(Cc2ccc(O)c3ncccc23)Cc2ccc(O)c3ncccc23)cc1
fold change (FC) [1]: 3 | fold change (FC) [2]: 3 | fold change (FC) [3]: 3 | fold change (FC) [4]: 3 | fold change (FC) [5]: 3 | CC50 [6]: 3 nM | fold change (FC) [7]: 3 | fold change (FC) [8]: 3 | fold change (FC) [9]: 3 | fold change (FC) [10]: > 1.4 | fold change (FC) [11]: 3 | fold change (FC) [12]: 3 | fold change (FC) [13]: 3 | fold change (FC) [14]: 3 | fold change (FC) [15]: > 1.4 | IC50 [16]: 53 nM | fold change (FC) [17]: 3 | fold change (FC) [18]: 3 | fold change (FC) [19]: 3 | fold change (FC) [20]: 3 | fold change (FC) [21]: 3 | fold change (FC) [22]: 3 | fold change (FC) [23]: 3 | fold change (FC) [24]: 3 | Activity (U-87MG ATCC [25]): Active | Activity [26]: Active | fold change (FC) [27]: >1.4 | fold change (FC) [28]: 3 | fold change (FC) [29]: 3 | Activity (U-87MG ATCC [30]): inactive | fold change (FC) [31]: > 1.4 | fold change (FC) [32]: > 1.4 | fold change (FC) [33]: 3 | fold change (FC) [34]: 3 | fold change (FC) [35]: 3
